Measured values as given in US9630977B2, “Cephalosporin derivatives and pharmaceutical compositions thereof” (Legochem Biosciences, Inc., priority 2011, dated 2017).
Converted amounts (≈) assume the structure as drawn. Like-named read-outs stand apart in the source and are kept apart here.

How the values were obtained:
Test in all cases: In vitro antibacterial activity test (broth microdilution)
Assay type in all cases: cell-based
A. baumannii 46 = system: A. baumannii 46
Procedure: (§1) To evaluate antibacterial activity of each of the compounds of Examples 1 to 68, in vitro antibacterial activity test was performed.
(§2) The in vitro antibacterial activity was evaluated by measuring MIC90 (ug/mL) of each of the compounds of Examples 1 to 68, which is defined as the lowest concentration of an antibiotic that will inhibit the visible growth of 90% of microorganisms after incubation as compared with a control group to which the antibiotic is not treated. MIC90 values were measured by the broth microdilution method developed by the Clinical and Laboratory Standards Institute (CLSI) (see CLSI M7-A5, Methods for Dilution Antimicrobial Susceptibility Test for Bacteria that Grow Aerobically-Fifth Edition (2000): CLSI, Villanova, Pa.).
(§3) In vitro antibacterial activity was measured with respect to the following 19 clinical isolates: M. catarrhalis; P. aeruginosa (5 strains); K. pneumoniae (6 strains); A. baumannii (3 strains); E. coli (2 strains); A. calcoaceticus; and E. cloacae.
(§4) Test compounds each (the cephalosporin derivative compounds prepared in Examples 1 to 68) were dissolved in DMSO at the concentration of 10,240 ug/mL, were diluted by two fold with DMSO, and then were diluted by twenty fold with sterilized distilled water. The final concentration in the antibacterial activity test was in the range of […] to 128 ug/mL, and the final concentration of DMSO used as an adjuvant was 2.5% (V/V).

A. baumannii 49 = system: A. baumannii 49
Procedure: as §1, §2, §3, §4

A. baumannii 52 = system: A. baumannii 52
Procedure: as §1, §2, §3, §4

[1] = system: A. calcoaceticus ATCC15473
Procedure: as §1, §2, §3, §4

E. cloacae β19 = system: E. cloacae β19
Procedure: as §1, §2, §3, §4

E. coli AG100 = system: E. coli AG100
Procedure: as §1, §2, §3, §4

E. coli β4 = system: E. coli β4
Procedure: as §1, §2, §3, §4

K. pneumoniae 2011E = system: K. pneumoniae 2011E
Procedure: as §1, §2, §3, §4

K. pneumoniae β14 = system: K. pneumoniae β14
Procedure: as §1, §2, §3, §4

P. aeruginosa 1912E = system: P. aeruginosa 1912E
Procedure: as §1, §2, §3, §4

P. aeruginosa 37 = system: P. aeruginosa 37
Procedure: as §1, §2, §3, §4

P. aeruginosa 40 = system: P. aeruginosa 40
Procedure: as §1, §2, §3, §4

P. aeruginosa 6065Y = system: P. aeruginosa 6065Y
Procedure: as §1, §2, §3, §4

P. aeruginosa 43 = details: Pseudomonas aeruginosa
Procedure: as §1, §2, §3, §4

[2] = Acinetobacter baumannii, 46, A. baumannii 46
[3] = Acinetobacter baumannii, 49, A. baumannii 49
[4] = Acinetobacter calcoaceticus, ATCC15473, A. calcoaceticus ATCC15473
[5] = Pseudomonas aeruginosa, 37, P. aeruginosa 37
[6] = Acinetobacter baumannii, A. baumannii 46, read-out: MIC90
[7] = Acinetobacter baumannii, A. baumannii 49, read-out: MIC90
[8] = Acinetobacter baumannii, A. baumannii 52, read-out: MIC90
[9] = Acinetobacter calcoaceticus, A. calcoaceticus ATCC15473, read-out: MIC90
[10] = Enterobacter cloacae, read-out: MIC90
[11] = Escherichia coli, AG100, E. coli AG100, read-out: MIC90
[12] = Escherichia coli, read-out: MIC90
[13] = Klebsiella pneumoniae, 2011E, K. pneumoniae 2011E, read-out: MIC90
[14] = Klebsiella pneumoniae, read-out: MIC90
[15] = Pseudomonas aeruginosa, 1912E, read-out: MIC90
[16] = Pseudomonas aeruginosa, 37, P. aeruginosa 37, read-out: MIC90
[17] = Pseudomonas aeruginosa, 40, P. aeruginosa 40, read-out: MIC90
[18] = Pseudomonas aeruginosa, read-out: MIC90

Row | Compound | MIC90 (A. baumannii 46; [2]) | MIC90 (A. baumannii 49; [3]) | MIC90 (A. baumannii 52; Acinetobacter baumannii, 52) | MIC90 [1, 4] | MIC90 (E. cloacae β19; Enterobacter cloacae) | MIC90 (E. coli AG100; Escherichia coli, AG100) | MIC90 (E. coli β4; Escherichia coli) | MIC90 (K. pneumoniae 2011E; Klebsiella pneumoniae, 2011E) | MIC90 (K. pneumoniae β14; Klebsiella pneumoniae) | MIC90 (P. aeruginosa 1912E; Pseudomonas aeruginosa, 1912E) | MIC90 (P. aeruginosa 37; [5]) | MIC90 (P. aeruginosa 40; Pseudomonas aeruginosa, 40) | MIC90 (P. aeruginosa 6065Y; Pseudomonas aeruginosa, 6065Y) | MIC90 (A. baumannii 46; [6]) | MIC90 (A. baumannii 49; [7]) | MIC90 (A. baumannii 52; [8]) | MIC90 [1, 9] | MIC90 (E. cloacae β19; [10]) | MIC90 (E. coli AG100; [11]) | MIC90 (E. coli β4; [12]) | further results
1 | CC(C)(O/N=C(\C(=O)N[C@@H]1C(=O)N2C(C(=O)[O-])=C(C[n+]3cnc(N)c(NCCN)c3)CSC12)c1csc(N)n1)C(=O)O (stereo partly shown) [Compound 37] | 4 µg/mL (≈ 6.44 µM) | 128 µg/mL (≈ 206 µM) | 64 µg/mL (≈ 103 µM) | 1 µg/mL (≈ 1.61 µM) | 16 µg/mL (≈ 25.8 µM) | 4 µg/mL (≈ 6.44 µM) | 4 µg/mL (≈ 6.44 µM) | 8 µg/mL (≈ 12.9 µM) | 16 µg/mL (≈ 25.8 µM) | 4 µg/mL (≈ 6.44 µM) | 16 µg/mL (≈ 25.8 µM) | 4 µg/mL (≈ 6.44 µM) | 8 µg/mL (≈ 12.9 µM) | – | – | – | – | – | – | – | –
2 | CC(C)(O/N=C(\C(=O)N[C@@H]1C(=O)N2C(C(=O)[O-])=C(C[n+]3cnc(N)c(NCCCC(=O)O)c3)CSC12)c1csc(N)n1)C(=O)O (stereo partly shown) [Compound 38] | – | – | – | – | – | – | – | – | – | – | – | – | – | 128 µg/mL (≈ 193 µM) | > 128 µg/mL | > 128 µg/mL | 16 µg/mL (≈ 24.1 µM) | > 128 µg/mL | 8 µg/mL (≈ 12.1 µM) | 16 µg/mL (≈ 24.1 µM) | MIC90 (K. pneumoniae 2011E; [13]): 4 µg/mL (≈ 6.03 µM); MIC90 (K. pneumoniae β14; [14]): 64 µg/mL (≈ 96.4 µM); MIC90 (P. aeruginosa 1912E; [15]): 32 µg/mL (≈ 48.2 µM); MIC90 (P. aeruginosa 37; [16]): > 128 µg/mL; MIC90 (P. aeruginosa 40; [17]): 64 µg/mL (≈ 96.4 µM); MIC90 (P. aeruginosa 6065Y; [18]): 128 µg/mL (≈ 193 µM)
3 | CNc1nc[n+](CC2=C(C(=O)[O-])N3C(=O)[C@@H](NC(=O)/C(=N\OC(C)(C)C(=O)O)c4csc(N)n4)C3SC2)cc1N (stereo partly shown) [Compound 39] | – | – | – | – | – | – | – | – | – | – | – | – | – | 8 µg/mL (≈ 13.5 µM) | > 128 µg/mL | > 128 µg/mL | 8 µg/mL (≈ 13.5 µM) | 128 µg/mL (≈ 216 µM) | 1 µg/mL (≈ 1.69 µM) | 16 µg/mL (≈ 27 µM) | MIC90 (K. pneumoniae 2011E; [13]): 1 µg/mL (≈ 1.69 µM); MIC90 (K. pneumoniae β14; [14]): 8 µg/mL (≈ 13.5 µM); MIC90 (P. aeruginosa 1912E; [15]): 8 µg/mL (≈ 13.5 µM); MIC90 (P. aeruginosa 37; [16]): 128 µg/mL (≈ 216 µM); MIC90 (P. aeruginosa 40; [17]): 32 µg/mL (≈ 54.1 µM); MIC90 (P. aeruginosa 43; P. aeruginosa 43, read-out: MIC90): 4 µg/mL (≈ 6.76 µM); MIC90 (P. aeruginosa 6065Y; [18]): 128 µg/mL (≈ 216 µM)
4 | CC(C)(O/N=C(\C(=O)N[C@@H]1C(=O)N2C(C(=O)[O-])=C(C[n+]3cnc(N)c(NCCNC(=N)N)c3)CSC12)c1csc(N)n1)C(=O)O (stereo partly shown) [Compound 40] | 2 µg/mL (≈ 3.02 µM) | 128 µg/mL (≈ 193 µM) | 128 µg/mL (≈ 193 µM) | 0.25 µg/mL (≈ 0.377 µM) | 32 µg/mL (≈ 48.3 µM) | 4 µg/mL (≈ 6.04 µM) | 8 µg/mL (≈ 12.1 µM) | 16 µg/mL (≈ 24.1 µM) | 8 µg/mL (≈ 12.1 µM) | 4 µg/mL (≈ 6.04 µM) | 8 µg/mL (≈ 12.1 µM) | 8 µg/mL (≈ 12.1 µM) | 16 µg/mL (≈ 24.1 µM) | – | – | – | – | – | – | – | MIC90 (P. aeruginosa 43; 43): 32 µg/mL (≈ 48.3 µM)
5 | CC(C)(O/N=C(\C(=O)N[C@@H]1C(=O)N2C(C(=O)[O-])=C(C[n+]3cnc(N)c(NC(=O)CCN)c3)CSC12)c1csc(N)n1)C(=O)O (stereo partly shown) [Compound 48] | 8 µg/mL (≈ 12.3 µM) | 128 µg/mL (≈ 197 µM) | 128 µg/mL (≈ 197 µM) | 0.5 µg/mL (≈ 0.771 µM) | 128 µg/mL (≈ 197 µM) | 2 µg/mL (≈ 3.08 µM) | 2 µg/mL (≈ 3.08 µM) | 4 µg/mL (≈ 6.17 µM) | 16 µg/mL (≈ 24.7 µM) | 8 µg/mL (≈ 12.3 µM) | 64 µg/mL (≈ 98.7 µM) | 8 µg/mL (≈ 12.3 µM) | 16 µg/mL (≈ 24.7 µM) | – | – | – | – | – | – | – | –
6 | CC(C)(O/N=C(\C(=O)N[C@@H]1C(=O)N2C(C(=O)[O-])=C(C[n+]3cnc(N)c(NCCN)c3)CSC12)c1csc(N)n1)C(=O)O (stereo partly shown) [Compound 49] | – | – | – | – | – | – | – | – | – | – | – | – | – | – | – | – | – | – | – | – | MIC90 (A. baumannii 46; A. baumannii 46): 8 µg/mL (≈ 12.9 µM); MIC90 (A. baumannii 49; A. baumannii 49): 64 µg/mL (≈ 103 µM); MIC90 (A. baumannii 52; A. baumannii 52): 64 µg/mL (≈ 103 µM); MIC90 ([1]; A. calcoaceticus ATCC15473): 2 µg/mL (≈ 3.22 µM); MIC90 (E. cloacae β19): 32 µg/mL (≈ 51.6 µM); MIC90 (E. coli AG100; E. coli AG100): 4 µg/mL (≈ 6.44 µM); MIC90 (E. coli β4): 8 µg/mL (≈ 12.9 µM); MIC90 (K. pneumoniae 2011E; K. pneumoniae 2011E): 8 µg/mL (≈ 12.9 µM); MIC90 (K. pneumoniae β14): 32 µg/mL (≈ 51.6 µM); MIC90 (P. aeruginosa 1912E): 2 µg/mL (≈ 3.22 µM); MIC90 (P. aeruginosa 37; P. aeruginosa 37): 8 µg/mL (≈ 12.9 µM); MIC90 (P. aeruginosa 40; P. aeruginosa 40): 4 µg/mL (≈ 6.44 µM); MIC90 (P. aeruginosa 43; 43): > 128 µg/mL; MIC90 (P. aeruginosa 6065Y): 16 µg/mL (≈ 25.8 µM)
7 | CC(=O)Nc1c[n+](CC2=C(C(=O)[O-])N3C(=O)[C@@H](NC(=O)/C(=N\OC(C)(C)C(=O)O)c4csc(N)n4)C3SC2)cnc1N (stereo partly shown) [Compound 68] | – | – | – | – | – | – | – | – | – | – | – | – | – | 8 µg/mL (≈ 12.9 µM) | 128 µg/mL (≈ 207 µM) | 128 µg/mL (≈ 207 µM) | 1 µg/mL (≈ 1.61 µM) | 128 µg/mL (≈ 207 µM) | 0.5 µg/mL (≈ 0.807 µM) | 8 µg/mL (≈ 12.9 µM) | MIC90 (K. pneumoniae 2011E; [13]): 1 µg/mL (≈ 1.61 µM); MIC90 (K. pneumoniae β14; [14]): 32 µg/mL (≈ 51.6 µM); MIC90 (P. aeruginosa 1912E; [15]): 4 µg/mL (≈ 6.46 µM); MIC90 (P. aeruginosa 37; [16]): 128 µg/mL (≈ 207 µM); MIC90 (P. aeruginosa 40; [17]): 4 µg/mL (≈ 6.46 µM); MIC90 (P. aeruginosa 6065Y; [18]): 16 µg/mL (≈ 25.8 µM)
